Experimental data: patent US20130209441A1, “PROCESS FOR INHIBITION OF CEREBRAL DAMAGE ASSOCIATED WITH ISCHEMIA BY ANTHOCYANINS AND ANTHOCYANIDINS” (priority 2012, published 2013)

What was measured:
[1] = test system: AIF release from isolated mitochondria; experiment: AIF release from isolated mouse brain mitochondria; type: biochemical; settings: compound 100 μM
Procedure: Mitochondria are prepared from mouse brains using flowing differential centrifugation procedures at 4° C. described previously. Homogenation buffer (50 μl) containing the prepared mitochondrial pellet is incubated with 25 μl of C3G at the desired concentration and the buffer added to achieve the final volume of 100 μl. The AIF release is then assessed in the presence of 100 μM of C3G in response to stimulation by GS-NO (50 μM) and H2O2 (50 μM).

pMCAO mice = experiment: Mouse model of permanent middle cerebral artery occlusion (pMCAO): infarct volume (TTC staining) and 18-point neurological score at 24 h; type: in vivo; settings: 24 h after pMCAO, vs vehicle
Procedure: C3G is isolated from Prunus cerasus fruits as previously described is dissolved in 0.9% normal saline (NS) and is administered by oral gavage to mice at 1-h before induction of pMCAO. Mice are randomly distributed into […] and treated with vehicle (n=10), or 1 mg/kg (n=8), 2 mg/kg (n=10), and 5 mg/kg (n=9) of C3G. The doses chosen in the present study are based on previous reports. Animals are euthanized at 24 h following pMCAO and infarct volumes are determined.
To evaluate the effect of a delayed treatment at 3 h following pMCAO, mice are randomly assigned to vehicle (n=11), or 2 mg/kg of C3G administered orally at 3 h after pMCAO supplemented by two additional doses of 2 mg/kg of C3G 3 h apart. […] Animals are euthanized at 24 h following pMCAO and infarct volumes and neurological outcomes are determined.
Neurological assessment of experimental mice is performed according to an 18 point-based scale at 1 h before induction of pMCAO and at 24 h following surgery. Brains are immediately removed following neurological assessment, rinsed in cold saline solution, cut into 1-mm-thick coronal sections, and processed for 2% 2,3,5-triphenylterazolium chloride (TTC) staining as previously described. The infarct volumes from individual sections are then summed to determine the total brain infarct volume and adjusted for edema (corrected infarct volume).
All data are expressed as mean values±S.E.M. The degree of statistical significance between groups is determined on the basis of Student t-test, One-way ANOVA test, followed by post hoc Fisher LSD test, and Kruskal-Wallis rank test. SigmaStat 3.0 software (SYSTAT Software Inc., Point Richmond, Calif.) is used to carry out the analysis. Statistical significance is defined at p<0.05.

[2] = test system: cyt c release from isolated mitochondria; experiment: Cyt c release from isolated mouse brain mitochondria (immunoblot of supernatant); type: biochemical; settings: for cyt c release in response to Ca2+: Ca2+ 100 μM stimulation
Procedure: (§1) Measurement of superoxide is performed in situ by superoxide-selective oxidative fluorescent dye dihydroethidium cell membranes (DHE) as previously described in [3]. DHE is freely permeable across cell membranes and fluoresces red when oxidized to ethidium bromide by superoxide. Unfixed frozen brain sections (30 um) are placed on glass slides and submerged in 10^−6 mol/L DHE (Sigma) in phosphate buffered saline (PBS) buffer, pH 7.4 and incubated at 37° C. for 30 min in a dark humidified container. Fluorescence in ischemic regions of brain sections is then detected by a Zeiss 210 confocal microscope with a 590-nn long-pass filter. The intensity of the fluorescence is analyzed and quantified by densitometry (NIH Image software, version 1.37). The study included three groups (sham-operated, pMCAO with vehicle-treated, and pMCAO with 2 mg/kg of CG-treated mice; (n=4). Four brain sections of each mouse and five fields in each section are measured to calculate mean levels of the brain superoxide. Mitochondria are prepared from adult mouse brains (6-8 weeks old) by using the Percoll gradient method, as previously described. After decapitation, the brain is quickly removed and washed in the isolation buffer (300 mM sucrose, 0.1 mM EGTA, 10 mM HEPES, pH 7.4). The brain is homogenized in 15 ml of buffer by using hand-held glass Potter-Elvehjem homogenizer with PTFE pestle. After 5 strokes, the cell debris and nuclei are centrifuged at 1330×g for 5 min. The supernatant is further centrifuged at 21,200×g for 10 min. Mitochondrial fraction is resuspended in 15% Percoll solution diluted in the isolation buffer and layered on top of a discontinuous Percoll gradient of 25/40%. The density gradient is centrifuged at 30,700×g for 10 min and mitochondria are collected from the interface between 25 and 40% Percoll solution, transferred to a new tube, and washed in 10 mL of isolation buffer by centrifugation at 6700×g for 10 min. The resulting pellet is suspended in the isolation buffer without EGTA and further diluted to 2 mg/mL in assay buffer for the cyt c release assay. 50 μL of mitochondria are then mixed with buffer or reagents in a final reaction volume of 100 L.
The assay buffer contains 125 mM KCI, 2 mM KH2PO4, 4 mM MgCl2 at pH 7.4, and 3 mM ATP, 0.8 mM ADP, 5 mM succinate and 2 μM rotenone for respiration. Mitochondrial suspensions diluted in the assay buffer are exposed to Ca^2+ (100 μM), S-nitrosoglutathione (GS—NO, 50 μM for nitric oxide generation) or H2O2 (50 μM for oxidative stress) in 10 min and centrifuged sat 12,000×g in 5 min. The supernatant is collected and 15 μL of aliquots are run on a SDS-PAGE gel to detect the release of cyt c by the immunoblotting assay. […]

superoxide = experiment: In situ detection of brain superoxide by dihydroethidium (DHE) fluorescence in pMCAO mice; type: in vivo, mouse; settings: pretreatment 2 mg/kg orally; 24 h after pMCAO; vs vehicle, p<0.05
Procedure: as §1, with “After 5 strokes, the cell debris and nuclei are centrifuged at 1330×g for 5 min. The supernatant is further centrifuged at 21,200×g for 10 min. Mitochondrial fraction is resuspended in 15% Percoll solution diluted in the isolation buffer and layered on top of a discontinuous Percoll gradient of 25/40%. The density gradient is centrifuged at 30,700×g for 10 min and mitochondria are collected from the interface between 25 and 40% Percoll solution, transferred to a new tube, and washed in 10 mL of isolation buffer by centrifugation at 6700×g for 10 min. The resulting pellet is suspended in the isolation buffer without EGTA and further diluted to 2 mg/mL in assay buffer for the cyt c release assay. 50 μL of mitochondria are then mixed with buffer or reagents in a final reaction volume of 100 L.” left out

SMILES: OC[C@H]1O[C@@H](Oc2cc3c(O)cc(O)cc3[o+]c2-c2ccc(O)c(O)c2)[C@H](O)[C@@H](O)[C@@H]1O [C3G, cyanidin-3-O-glucoside]
- AIF release in response to GS-NO ([1]; GS-NO 50 μM stimulation): partially prevented
- AIF release in response to H2O2 ([1]; H2O2 50 μM stimulation): partially prevented
- reduction of infarct volume (pMCAO mice; 2 mg/kg oral gavage 1 h before pMCAO): 27%
- reduction of infarct volume (pMCAO mice; 5 mg/kg oral gavage 1 h before pMCAO): 30%
- reduction in infarct size (pMCAO mice; delayed treatment: 2 mg/kg orally at 3 h after pMCAO plus two additional 2 mg/kg doses 3 h apart): 25%
- neurological performance (18-point score) (pMCAO mice; pretreatment 2 mg/kg orally): statistically significant better neurological performance
- neurological performance (18-point score) (pMCAO mice; pretreatment 5 mg/kg orally): statistically significant better neurological performance
- neurological functional performance (18-point score) (pMCAO mice; treatment 2 mg/kg orally at 3 h after onset of ischemia plus two additional doses): significantly better
- cyt c release in response to Ca2+ ([2]; compound 1 μM): no effect
- cyt c release in response to Ca2+ ([2]; compound 100 μM): did not prevent
- cyt c release in response to GS-NO ([2]; GS-NO 50 μM oxidative stress, compound 100 μM): did not prevent
- cyt c release in response to H2O2 ([2]; H2O2 50 μM oxidative stress, compound 100 μM): did not prevent
- fluorescent density of brain superoxide in situ (superoxide): significantly suppressed
